Results: US9833497B2, “Human originated EGF domain proteins and use of the same” (CHENGDU SOURCEBIO LIMITED-LIABILITY COMPANY, priority 2013, dated 2017)

Tests used:
Assay type in all cases: cell-based
Pseudomonas aeruginosa = test: MIC against Gram-negative bacteria: Pseudomonas aeruginosa; conditions: 5×10^5 CFU/mL
Method in brief: (§1)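 Antibacterial activity of purified human EGF domain proteins: two-fold concentration series, triplicate wells, LB broth, 5×10^5 CFU/mL bacteria, 37° C shaking incubation. The lowest concentration without growth defines the MIC.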

Klebsiella pneumonia = test: MIC against Gram-negative bacteria: Klebsiella pneumonia; conditions: 5×10^5 CFU/mL
Method in brief: as §1

Serratia marcescens = test: MIC against Gram-negative bacteria: Serratia marcescens; conditions: 5×10^5 CFU/mL
Method in brief: as §1

Moraxella catarrhalis = test: MIC against Gram-negative bacteria: Moraxella catarrhalis; conditions: 5×10^5 CFU/mL
Method in brief: as §1

Citrobacter diversus = test: MIC against Gram-negative bacteria: Citrobacter diversus; conditions: 5×10^5 CFU/mL
Method in brief: as §1

E. coli BL21 = test: MIC against Gram-negative bacteria: E. coli BL21; conditions: 5×10^5 CFU/mL
Method in brief: as §1

Aeromonas hydrophila = test: MIC against Gram-negative bacteria: Aeromonas hydrophila; conditions: 5×10^5 CFU/mL
Method in brief: as §1

E. coli DH5α = test: Antibacterial activity: MIC and growth curve against E. coli DH5α in 96-well plate; conditions: minimal inhibitory concentration against E. coli DH5α; 96-well plate, 5×10^5 CFU/mL, 37° C., judged after 8 h
Method in brief: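 Log-phase bacteria (OD600 ~0.5) resuspended in LB at 5×10^5 CFU/mL, exposed to recombinant protein at 50, 25, 12.5 μg/mL final in triplicate, 37 °C shaking at 175 rpm. OD600 read every 30 min; MIC is lowest concentration showing no growth.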

Proteus mirabilis = test: MIC against Gram-negative bacteria: Proteus mirabilis; conditions: 5×10^5 CFU/mL
Method in brief: as §1

Proteus vulgaris = test: MIC against Gram-negative bacteria: Proteus vulgaris; conditions: 5×10^5 CFU/mL
Method in brief: as §1

Enterobacter cloacae = test: MIC against Gram-negative bacteria: Enterobacter cloacae; conditions: 5×10^5 CFU/mL
Method in brief: as §1

[1] = Pseudomonas aeruginosa, 10 h cultivation at 37° C.
[2] = Klebsiella pneumonia, 10 h cultivation at 37° C.
[3] = Serratia marcescens, 10 h cultivation at 37° C.
[4] = Moraxella catarrhalis, 10 h cultivation at 37° C.
[5] = Citrobacter diversus, 10 h cultivation at 37° C.
[6] = E. coli BL21, 10 h cultivation at 37° C.
[7] = Aeromonas hydrophila, 10 h cultivation at 37° C.
[8] = Proteus mirabilis, 10 h cultivation at 37° C.
[9] = Proteus vulgaris, 10 h cultivation at 37° C.
[10] = Enterobacter cloacae, 10 h cultivation at 37° C.

Substance	MIC against P. aeruginosa (Pseudomonas aeruginosa; [1]) [µg/mL]	MIC against K. pneumonia (Klebsiella pneumonia; [2]) [µg/mL]	MIC against S. marcescens (Serratia marcescens; [3]) [µg/mL]	MIC against M. catarrhalis (Moraxella catarrhalis; [4]) [µg/mL]	MIC against C. diversus (Citrobacter diversus; [5]) [µg/mL]	MIC against E. coli BL21 (E. coli BL21; [6]) [µg/mL]	MIC against A. hydrophila (Aeromonas hydrophila; [7]) [µg/mL]	MIC (E. coli DH5α) [µg/mL]	MIC against P. mirabilis (Proteus mirabilis; [8]) [µg/mL]	MIC against P. vulgaris (Proteus vulgaris; [9]) [µg/mL]	MIC against E. cloacae (Enterobacter cloacae; [10]) [µg/mL]	MIC (μg/mL) P. aeruginosa (Pseudomonas aeruginosa; 10 h cultivation at 37° C.) [µg/mL]	MIC (μg/mL) K. pneumonia (Klebsiella pneumonia; 10 h cultivation at 37° C.) [µg/mL]	MIC (μg/mL) S. marcescens (Serratia marcescens; 10 h cultivation at 37° C.) [µg/mL]	MIC (μg/mL) M. catarrhalis (Moraxella catarrhalis; 10 h cultivation at 37° C.) [µg/mL]	MIC (μg/mL) C. diversus (Citrobacter diversus; 10 h cultivation at 37° C.) [µg/mL]	MIC (μg/mL) E. coli BL21 (E. coli BL21; [6]) [µg/mL]	MIC (μg/mL) A. hydrophila (Aeromonas hydrophila; 10 h cultivation at 37° C.) [µg/mL]	MIC (μg/mL) P. mirabilis (Proteus mirabilis; 10 h cultivation at 37° C.) [µg/mL]	MIC (μg/mL) P. vulgaris (Proteus vulgaris; 10 h cultivation at 37° C.) [µg/mL]	also measured
PRT1440 (DKDECSKDNGGCQHECVNTMGSYMCQCRNGFVLHDNKHDCK; listed as Homo sapiens)	12.5	25	25	12.5	25	25	25	12.5	25	12.5	12.5										
PRT1450 (VPSNCDCLNGGTCVSNKYFSNIHWCNCPKKFGGQHCE; listed as Homo sapiens)	50	12.5	25	12.5	25	25	50	12.5	25	12.5	25										
PRT586 (CPCPEGPGSQRHFATSCHQDEYSQQIVCHCRAGYTGLRCEACAPGHFGDPSRPGGRCQL; listed as Homo sapiens)								12.5													MIC against P. aeruginosa (Pseudomonas aeruginosa; 96-well plate, 37° C., 10 h): 12.5 µg/mL; MIC against K. pneumonia (Klebsiella pneumonia; 96-well plate, 37° C., 10 h): 50 µg/mL; MIC against S. marcescens (Serratia marcescens; 96-well plate, 37° C., 10 h): 12.5 µg/mL; MIC against M. catarrhalis (Moraxella catarrhalis; 96-well plate, 37° C., 10 h): 25 µg/mL; MIC against C. diversus (Citrobacter diversus; 96-well plate, 37° C., 10 h): 12.5 µg/mL; MIC against E. coli BL21 (E. coli BL21; 96-well plate, 37° C., 10 h): 50 µg/mL; MIC against A. hydrophila (Aeromonas hydrophila; 96-well plate, 37° C., 10 h): 50 µg/mL; MIC against P. mirabilis (Proteus mirabilis; 96-well plate, 37° C., 10 h): 50 µg/mL; MIC against P. vulgaris (Proteus vulgaris; 96-well plate, 37° C., 10 h): 25 µg/mL; MIC against E. cloacae (Enterobacter cloacae; 96-well plate, 37° C., 10 h): 12.5 µg/mL
PRT144 (DKKVCSSNPCQNGGTCLNLHDSFFCICPPQWKGPLCS; listed as Homo sapiens)								25				12.5	50	12.5	12.5	25	50	50	25	50	MIC (μg/mL) E. cloacae (Enterobacter cloacae; 10 h cultivation at 37° C.): 12.5 µg/mL
PRT177 (GPGPCDGNPCANGGSCSETPRSFECTCPRGFYGLRCE; listed as Homo sapiens)								50				12.5	25	12.5	25	12.5	25	25	50	25	MIC (μg/mL) E. cloacae (Enterobacter cloacae; 10 h cultivation at 37° C.): 50 µg/mL
PRT636 (DINECEHPGLCGPQGECLNTEGSFHCVCQQGFSISADGRTCE; listed as Homo sapiens)								12.5													MIC P. aeruginosa (Pseudomonas aeruginosa; 96-well plate, 37° C., 10 h): 50 µg/mL; MIC K. pneumonia (Klebsiella pneumonia; 96-well plate, 37° C., 10 h): 25 µg/mL; MIC S. marcescens (Serratia marcescens; 96-well plate, 37° C., 10 h): 50 µg/mL; MIC M. catarrhalis (Moraxella catarrhalis; 96-well plate, 37° C., 10 h): 25 µg/mL; MIC C. diversus (Citrobacter diversus; 96-well plate, 37° C., 10 h): 50 µg/mL; MIC E. coli BL21 (E. coli BL21; 96-well plate, 37° C., 10 h): 25 µg/mL; MIC A. hydrophila (Aeromonas hydrophila; 96-well plate, 37° C., 10 h): 25 µg/mL; MIC P. mirabilis (Proteus mirabilis; 96-well plate, 37° C., 10 h): 12.5 µg/mL; MIC P. vulgaris (Proteus vulgaris; 96-well plate, 37° C., 10 h): 25 µg/mL; MIC E. cloacae (Enterobacter cloacae; 96-well plate, 37° C., 10 h): 12.5 µg/mL
